Key:
[1] = target: T1, wild type HCV NS3/4A 1b protease enzyme (Hepatitis C virus genotype 1b, UniProt P26663); test: biochemical; type: biochemical; conditions: read-out: Inhibition, WT; WT enzyme, FRET assay
T1 construct: 10× stocks of NS3/4A protease enzyme from Bioenza (Mountain View, Calif.); purchased Bioenza (Mountain View, Calif.)
Experimental: (§1) HCV Protease FRET Assay for Wild Type and Mutated NS3/4A 1b Enzymes (IC50)
(§2) Protease reactions were started with the addition of 45 μL of the FRET substrate and monitored for 120 minutes at λex487/λem514 through Quad^4 monochromoters in a Synergy^4 plate reader from BioTek (Winooski, Vt.). At the conclusion of each assay, progress curves from each well were examined for linear reaction kinetics and fit statistics (R^2, absolute sum of squares).
(§3) The compound numbers correspond to the compound numbers in Table 3.

[2] = target: T2, D168A mutant of the HCV NS3/4A 1b protease enzyme (Hepatitis C virus genotype 1b, UniProt P26663, D1194A); test: HCV Protease FRET Assay (IC50), D168A mutant; type: biochemical; conditions: read-out: Inhibition, HCV D168A; D168A enzyme, FRET assay
T2 construct: 10× stocks of NS3/4A protease enzyme from Bioenza (Mountain View, Calif.); purchased Bioenza (Mountain View, Calif.)
Experimental: as §1, §2, §3

[3] = system: HCV RNA replicon in cell line ET (luc-ubi-neo/ET), human Huh7 hepatoma; test: Method A: HCV RNA replicon antiviral assay (luciferase, ET cell line); type: cell-based, Hepatitis C virus; conditions: Hepatitis C virus, Huh-7, assay described in Example 22; for IC50: read-out: Replicon (IC50)
Experimental: The compounds were assayed to evaluate the antiviral activity and cytotoxicity of compounds in vitro using HCV RNA replicons. This assay used the cell line ET (luc-ubi-neo/ET), which is a human Huh7 hepatoma cell line that contains an HCV RNA replicon with a stable luciferase (Luc) reporter and three cell culture-adaptive mutations. […]
The ET cell line was grown in Dulbecco's modified essential media (DMEM), 10% fetal bovine serum (FBS), 1% penicillin-streptomycin (pen-strep), 1% glutamine, 250 μg/ml G418 in a 5% CO2 incubator at 37° C. All cell culture reagents were obtained from Mediatech (Manassas, Va.). Cells were trypsinized (1% trypsin:EDTA) and plated out at 5×10^3 cells/well in white 96-well assay plates (Costar) dedicated to cell number (cytotoxicity) or antiviral activity assessments. Drugs were added at six 3-fold concentrations each and the assay was run in DMEM, 5% FBS, 1% pen-strep, 1% glutamine. Human interferon alpha-2b (PBL Biolabs, New Brunswick, N.J.) was included in each run as a positive control compound. Cells were processed 72 hr post drug addition when the cells are still subconfluent. Antiviral activity was measured by analyzing replicon-derived luciferase activity using the Steady-Glo Luciferase Assay System (Promega, Madison, Wis.) according to manufacturer's instruction. The number of cells in each well was determined by CytoTox-1 reagent (Promega). Compound profile was derived by calculating applicable EC50 (effective concentration inhibiting virus replication by 50%), EC90 (effective concentration inhibiting virus replication by 90%), IC50 (concentration decreasing cell viability by 50%) and SI50 (selective index: […]) values.

[4] = target: T1, wild type HCV NS3/4A 1b protease enzyme; test: HCV Protease FRET Assay (IC50_APP), wild type; type: biochemical
Experimental: (§4) HCV Protease FRET Assay for WT and Mutated NS3/4A 1b Enzymes (IC50—APP).
(§5) The following protocol was used to generate “apparent” IC50 (IC50—APP) values as depicted in Table 6, below. […] 5 μL of each enzyme were added to Corning (#3575) 384-well, black, microtiter plates (Corning, N.Y.) after spotting a 0.5 μL volume of 50% DMSO and serially diluted compounds prepared in 50% DMSO. Protease reactions were immediately started after enzyme addition with the addition of 45 μL of the FRET substrate and monitored for 60-90 minutes at λex485/λem520 in a Synergy^4 plate reader from BioTek (Winooski, Vt.). At the conclusion of each assay, progress curves from each well were examined for linear reaction kinetics and fit statistics (R^2, 95% confidence intervals, absolute sum of squares).
(§6) The compound numbers correspond to the compound numbers in Table 3. […] ;

[5] = target: T3, A156T mutant of the HCV NS3/4A 1b protease enzyme (Hepatitis C virus genotype 1b, UniProt P26663, A1182T); test: HCV Protease FRET Assay (IC50_APP), A156T mutant; type: biochemical; conditions: apparent IC50, A156T mutant; read-out: IC50_APP, HCV A156T
T3 construct: 10× stocks of NS3/4A protease enzyme from Bioenza (Mountain View, Calif.); purchased Bioenza (Mountain View, Calif.)
Experimental: as §4, §5, §6

[6] = target: T2, D168A mutant of the HCV NS3/4A 1b protease enzyme; test: HCV Protease FRET Assay (IC50_APP), D168A mutant; type: biochemical; conditions: apparent IC50, D168A mutant; read-out: IC50_APP, HCV D168A
Experimental: as §4, §5, §6

[7] = read-out: IC50_APP, WT, apparent IC50, wild type NS3/4A 1b

Row | SMILES | IC50 [1] [nM] | IC50 [2] [nM] | IC90 [3] [nM] | IC50 [3] [nM] | IC50 [4, 7] [nM] | IC50 [5] [nM] | IC50 [6] [nM] | IC50 [4] [nM]
1 | C=C[C@@H]1C[C@]1(NC(=O)[C@@H]1C[C@@H](Oc2cc(-c3ccccc3)nc3cc(OC)ccc23)CN1C(=O)CNC(=O)[C@@H](Cl)c1ccccc1)C(=O)NS(=O)(=O)c1ccccc1 (stereo in doubt) [Compound I-45, (2S,4R)-1-(2-((S,R)-2-chloro-2-phenylacetamido)acetyl)-4-(7-methoxy-2-phenylquinolin-4-yloxy)-N-((1R,2S)-1-(phenylsulfonylcarbamoyl)-2-vinylcyclopropyl)pyrrolidine-2-carboxamide] | 100 to 1000 | 1000 to 10000 |  |  |  |  |  | 
2 | C=C[C@@H]1C[C@]1(NC(=O)[C@@H]1C[C@@H](Oc2cc(-c3ccccc3)nc3cc(OC)ccc23)CN1C(=O)[C@H](CCNC(=O)C(C)Cl)NC(=O)OC(C)(C)C)C(=O)NS(=O)(=O)c1ccccc1 (stereo partly drawn) [Compound I-1, (2S)-2-[[(1,1-dimethylethoxy)carbonyl]amino]-4-(R,S-chloropropionyl)amino-butanoyl-(4R)-4-[(7-methoxy-2-phenyl-4-quinolinyl)oxy]-L-prolyl-1-amino-2-ethenyl-N-(phenylsulfonyl)-(1R,2S)-cyclopropanecarboxamide] | < 10 | 1000 to 10000 |  |  |  |  |  | 
3 | C=C[C@@H]1C[C@]1(NC(=O)[C@@H]1C[C@@H](Oc2cc(-c3ccccc3)nc3cc(OC)ccc23)CN1C(=O)[C@H](CC1CO1)NC(=O)OC(C)(C)C)C(=O)NS(=O)(=O)c1ccccc1 (stereo partly drawn) [Compound I-6, (2S)-2-[[(1,1-dimethylethoxy)carbonyl]amino]-3-oxiranepropanoyl-(4R)-4-[(7-methoxy-2-phenyl-4-quinolinyl)oxy]-L-prolyl-1-amino-2-ethenyl-N-(phenylsulfonyl)-(1R,2S)-cyclopropanecarboxamide] | < 10 | 100 to 1000 |  |  |  |  |  | 
4 | C=C[C@@H]1C[C@]1(NC(=O)[C@@H]1C[C@@H](Oc2cc(-c3ccccc3)nc3cc(OC)ccc23)CN1C(=O)[C@H](CNC(=O)C1(C#N)CC1)NC(=O)OC(C)(C)C)C(=O)NS(=O)(=O)c1ccccc1 [Compound I-11, N-[(1,1-dimethylethoxy)carbonyl]-3-[(1-cyano-cyclopropylcarboxyl)amino]-L-alanyl-(4R)-4-[(7-methoxy-2-phenyl-4-quinolinyl)oxy]-L-prolyl-1-amino-2-ethenyl-N-(phenylsulfonyl)-(1R,2S)-cyclopropanecarboxamide] | < 10 | 100 to 1000 |  |  |  |  |  | 
5 | C=C[C@@H]1C[C@]1(NC(=O)[C@@H]1C[C@@H](Oc2cc(-c3ccccc3)nc3cc(OC)ccc23)CN1C(=O)[C@H](CNC(=O)[C@@H](C)Cl)NC(=O)OC(C)(C)C)C(=O)NS(=O)(=O)c1ccccc1 [Compound I-13, N-[(1,1-dimethylethoxy)carbonyl]-3-[R-(chloropropionyl)amino]-L-alanyl-(4R)-4-[(7-methoxy-2-phenyl-4-quinolinyl)oxy]-L-prolyl-1-amino-2-ethenyl-N-(phenylsulfonyl)-(1R,2S)-cyclopropanecarboxamide] | < 10 | 100 to 1000 |  |  |  |  |  | 
6 | C=C[C@@H]1C[C@]1(NC(=O)[C@@H]1C[C@@H](Oc2cc(-c3ccccc3)nc3cc(OC)ccc23)CN1C(=O)[C@H](CCC(=O)N1CCC1=O)NC(=O)OC(C)(C)C)C(=O)NS(=O)(=O)C1CC1 [Compound I-70, t-butyl-(2S)-1-((2S,4R)-2-((1R,2S)-1-(cyclopropylsulfonylcarbamoyl)-2-vinylcyclopropylcarbamoyl)-4-(7-methoxy-2-phenylquinolin-4-yloxy)pyrrolidin-1-yl)-5-(2-oxoazetidinyl)-1,5-dioxopentan-2-ylcarbamate] |  |  | 100 to 1000 | 100 to 1000 | < 10 | < 10 | < 10 | 
7 | C#CCOC(=O)N[C@@H](CN(C)C(=O)CCCl)C(=O)N1C[C@H](Oc2cc(-c3ccccc3)nc3cc(OC)ccc23)C[C@H]1C(=O)N[C@]1(C(=O)NS(=O)(=O)C2CC2)C[C@H]1C=C [Compound I-71] |  |  | 100 to 1000 | 100 to 1000 | < 10 | 100 to 1000 | 100 to 1000 | 
8 | C=CC(=O)N(C)C[C@H](NC(=O)OC1CCCC1)C(=O)N1C[C@H](Oc2cc(-c3ccccc3)nc3cc(OC)ccc23)C[C@H]1C(=O)N[C@]1(C(=O)NS(=O)(=O)C2CC2)C[C@H]1C=C [Compound I-72] |  |  | 10 to 100 | < 10 | < 10 | 100 to 1000 | 100 to 1000 | 
9 | C=CC(=O)N(C)C[C@H](NC(=O)OC(C)(C)C)C(=O)N1C[C@H](Oc2nccc3ccc(Br)cc23)C[C@H]1C(=O)N[C@]1(C(=O)NS(=O)(=O)C2CC2)C[C@H]1C=C [Compound I-84, tert-butyl-(S)-1-((2S,4R)-4-(7-bromoisoquinolin-1-yloxy)-2-((1R,2S)-1-(cyclopropylsulfonylcarbamoyl)-2-vinylcyclopropylcarbamoyl)pyrrolidin-1-yl)-3-(N-methylacrylamido)-1-oxopropan-2-ylcarbamate] |  |  | 100 to 1000 | 10 to 100 | < 10 | 100 to 1000 | 100 to 1000 | 
10 | C=CC(=O)N(C)CC[C@H](NC(=O)OC1CCCC1)C(=O)N1C[C@H](Oc2cc(-c3ccccc3)nc3cc(OC)ccc23)C[C@H]1C(=O)N[C@]1(C(=O)NS(=O)(=O)C2CC2)C[C@H]1C=C [Compound I-85, Cyclopentyl-(S)-1-((2S,4R)-2-((1R,2S)-1-(cyclopropylsulfonylcarbamoyl)-2-vinylcyclopropylcarbamoyl)-4-(7-methoxy-2-phenylquinolin-4-yloxy)pyrrolidin-1-yl)-4-(N-methylacrylamido)-1-oxobutan-2-ylcarbamate] |  |  | 10 to 100 | 10 to 100 | < 10 | 10 to 100 | 10 to 100 | 
11 | C=C[C@@H]1C[C@]1(NC(=O)[C@@H]1C[C@@H](Oc2nccc3ccccc23)CN1C(=O)[C@H](CCC(=O)C=C(C)C)NC(=O)OC(C)(C)C)C(=O)NS(=O)(=O)C1CC1 [Compound I-86, tert-butyl-(S)-1-((2S,4R)-2-((1R,2S)-1-(cyclopropylsulfonylcarbamoyl)-2-vinylcyclopropylcarbamoyl)-4-(isoquinolin-1-yloxy)pyrrolidin-1-yl)-7-methyl-1,5-dioxooct-6-en-2-ylcarbamate] |  |  | 10 to 100 | < 10 | < 10 | 100 to 1000 | 100 to 1000 | 
12 | C=C[C@@H]1C[C@]1(NC(=O)[C@@H]1C[C@@H](Oc2nccc3ccc(-c4cccs4)cc23)CN1C(=O)[C@H](CCC(=O)C=C(C)C)NC(=O)OC(C)(C)C)C(=O)NS(=O)(=O)C1CC1 [Compound I-87, tert-butyl-(S)-1-((2S,4R)-2-((1R,2S)-1-(cyclopropylsulfonylcarbamoyl)-2-vinylcyclopropylcarbamoyl)-4-(7-(thiophen-2-yl)isoquinolin-1-yloxy)pyrrolidin-1-yl)-7-methyl-1,5-dioxooct-6-en-2-ylcarbamate] |  |  | 10 to 100 | < 10 |  | 10 to 100 | 100 to 1000 | < 10
